Tested on: SH-SY5Y cells
Test: mito-mKeima mitophagy assay (mitophagy index)
Type: cell-based, human
Conditions: for enhancement of mitophagy: co-treating with excess TSPO ligand
Description: FIG. 1. The structure of AUTAC-4 is shown in (A). (B) Representative images of SH-SY5Y cells stably expressing the mito-mKeima reporter treated with AUTAC4 for 18 h. Nuclei were stained with Hoechst 33342, healthy mitochondria are shown in green and mitochondria in lysosomes are shown in red. (C-E) Fold change in mitophagy index over time after treatment with increasing concentrations of AUTAC4 under treatment with DMSO (C), 3 mM CCCP (D) or 0.1/0.1 mM antimycin/oligomycin (E), also for 18 h. (F) Quantification of changes in mitochondrial membrane potential over time (DYm) by measuring the TMRM relative fluorescence intensity (RFI) treated with DMSO, 10 mM CCCP, 10 mM and 20 mM AUTAC4. Normalised to number of nuclei. (G) Representative western blot of SH-SY5Y cells treated with DMSO, 10 mM AUTAC4 or 10 mM AUTAC4+0.1/0.1 mM antimycin/oligomycin for 18 h and, probed for p62, b-actin and Tom20. Quantifications of western blot for changes in Tom20 and p62 levels shown in (H) and (I), respectively. (J) Representative images of PANC-1 cells stably expressing the mCherry-EGFP-LC3 tandem reporter. Nuclei stained with Hoechst 33342, autophagosomes are shown in the EGFP channel and autolysosomes in the mCherry channel. Fold change in the number of autophagosome (K) and autolysosome (L) puncta in AUTAC4 treated cells. All data shown are mean±SEM, n=3, *p<0.05, *** p<0.001. For mito-mKeima experiments, statistics were calculated by Two-way ANOVA with Tukey's multiple comparisons test. For western blots, TMRM and LC3 tandem reporter assay, statistics were calculated with one-way ANOVA with Tukey's multiple comparisons test.
FIG. 5. ULKTACs induce potent mitophagy after colocalisation and local activation of ULK1 at mitochondria (A) Representative immunofluorescence of PANC-1 cells treated with CCCP, ULKTACs or both and immunostained for TOM20 and ULK1 and counterstained with Alexa 488 and 568, respectively. Nuclei stained with Hoechst 33342. (B) Quantification of the colocalised ULK1 to TOM20 spot area of PANC-1 cells treated with DMSO, 5 mM CCCP, 10 mM BL-918, 10 mM BL-918+5 mM CCCP, […] NZ-65, […] NZ-65+5 mM CCCP, […] NZ-66, […] NZ-66+5 mM CCCP, 50 mM TSPO ligand, […] NZ-65+50 mM TSPO ligand, […] NZ-66+50 mM TSPO ligand. (C) Western blot of SH-SY5Y cells treated with 1 mM ULKTACs, 5 mM CCCP or both, probed for Mfn2, b-Actin and Tom20—quantifications are shown in (D) for Mfn2, normalised to Actin. (E) Representative images of SH-SY5Y cells stably expressing the mito-mKeima reporter treated with 3 mM CCCP, NZ-65 or both. Nuclei were stained with Hoechst 33342, healthy mitochondria are shown in green and mitochondria in lysosomes are shown in red. Fold change in mitophagy index over time after treatment for the indicated timepoints with title treatments alone or co-treated with 1.25 mM ULKTAC or 10 mM ULKTAC NZ-65 (F) or NZ-66 (G). Fold change in mitophagy index over time after treatment for the indicated timepoints with DMSO, 1.25 µM NZ-65 or NZ-66±50 µM TSPO ligand under co-treatment with DMSO (H) or 3 μM CCCP (I). […] Normalised to number of nuclei. All data shown are mean±SEM, n=3, *p<0.05, ** p<0.01, *** p<0.001. For colocalisation and TMRM experiments, one-way ANOVA with Dunnett's multiple comparisons test. For western blots, one-way ANOVA with Tukey's multiple comparisons test and unpaired t-test. For mito-mKeima experiment, two-way ANOVA with Tukey's multiple comparisons test.
SH-SY5Y stably expressing mito-mKeima were produced as previously described28,29. Cells were seeded in 384 well CellCarrier Ultra plates (PerkinElmer) 24 hours before treatment in complete media without phenol red. Cells were treated with increasing concentrations of BL-918, AUTAC4, NZ-65 or NZ-66, 24 hours prior to treatment with increasing concentrations of mitochondrial uncouplers to cause mitochondrial insult. SH-SY5Y mitochondria were treated with DMSO, 3 μM CCCP, 10 μM CCCP, 0.1/0.1 μM antimycin/oligomycin (AO), 0.5/0.5 µM AO or 1/1 μM AO. […]

[1] = co-treatment with antimycin/oligomycin

| Compound | enhancement of mitophagy | enhancement of induced mitophagy (co-treatment with CCCP) | enhancement of induced mitophagy [1] | induction of mitophagy (compound alone, higher concentrations) |
| --- | --- | --- | --- | --- |
| O=C(Nc1cc(C(F)(F)F)cc(C(F)(F)F)c1)N[C@@H](C(=O)Nc1ccc(F)cc1F)c1ccc(OCc2cn(CCCCCCNC(=O)C(=O)c3c(-c4ccccc4)[nH]c4ccccc34)nn2)cc1 [NZ-66, (R)-2-(3-(3,5-bis(trifluoromethyl)phenyl)ureido)-N-(2,4-difluorophenyl)-2-(4-((1-(6-(2-oxo-2-(2-phenyl-1H-indol-3-yl)acetamido)hexyl)-1H-1,2,3-triazol-4-yl)methoxy)phenyl) acetamide] | restricts enhancement of mitophagy | remarkably strong increases in mitophagy | remarkably strong increases in mitophagy |  |
| O=C(Nc1ccc(F)cc1F)[C@H](NC(=S)Nc1cc(C(F)(F)F)cc(C(F)(F)F)c1)c1ccccc1 [BL-918, reference compound] |  |  |  | induction of mitophagy only at higher concentrations |
| O=C(Nc1cc(C(F)(F)F)cc(C(F)(F)F)c1)N[C@@H](C(=O)Nc1ccc(F)cc1F)c1ccc(OCc2cn(CCOCCOCCNC(=O)C(=O)c3c(-c4ccccc4)[nH]c4ccccc34)nn2)cc1 [NZ-65, (R)-2-(3-(3,5-bis(trifluoromethyl)phenyl)ureido)-N-(2,4-difluorophenyl)-2-(4-((1-(2-(2-(2-(2-oxo-2-(2-phenyl-1H-indol-3-yl)acetamido)ethoxy)ethoxy)ethyl)-1H-1,2,3-triazol-4-yl)methoxy)phenyl) acetamide] | restricts enhancement of mitophagy | remarkably strong increases in mitophagy | remarkably strong increases in mitophagy |  |
